Experimental data reported in patent publication US20250170072A1, “NOVEL COMPOSITIONS FOR REDUCING METHANE PRODUCTION IN RUMINANT ANIMALS” (FUTUREFEED PTY LTD, priority 2022, published 2025).
Read-outs that look alike come from different tables or passages of the source.

Columns and labels:
in vitro fermentation = details: doses of 0.25, 1 and 1.5% of feed dry matter; cited from earlier work
rumen fluid = details: formulated in DMSO, cited from earlier work
[1] = at 20 degrees; cited from earlier work
Bromoform in water = assay type: physicochemical; details: deionised water
Experimental: Manufactured synthetic CHBr3, 98% purity, and stabilized with 2-methyl-2-butene (Sigma-Aldrich, product no: 241032) was used for the preparation of the four excipients. The Corn Oil, Molasses and Water were made with similar protocols as per the Canola Oil in Example 4. Briefly, CHBr3 was dissolved and homogenised into either retail corn oil, molasses, or deionised water and homogenised by repeated inversion and left to stabilise overnight prior to achieve a concentration of 3.0±0.10 mg/g. Cyclodextrin was prepared as described previously (patent WO 96/14062, PCT AU95/00733). Briefly, CHBr3 was added to α-cyclodextrin (Sigma-Aldrich, product no: 779008) aqueous solution and mixed overnight. The solid was then separated, washed, then dried. The CHBr3 concentration of the dried powder was determined and then diluted with additional α-cyclodextrin to adjust the CHBr3 concentration to 3.0±0.10 mg/g. TGP, CH4, H2 and CO2 production, IVDDM, and VFA were determined using the protocol as described in Example 4.

## BrC(Br)Br [bromoform, tribromomethane]
In vitro fermentation
  methane production: no effect
Rumen fluid; 1 μM
  methane production in in vitro fermentation: does not significantly inhibit
Rumen fluid; doses of 5 μM, 10 μM and 25 μM
  methane production in in vitro fermentation: significantly inhibits
[1]
  solubility in water: less than 0.1 g bromofrm per 100 g water
Bromoform in water
  concentration of bromoform prepared in water: 3.0±0.10 mg bromoform per gram deionised water
